Experimental data reported in ChEMBL document CHEMBL1129938, “Synthesis and biological evaluation of nonclassical 2,4-diamino-5-methylpyrido[2,3-d]pyrimidines with novel side chain substituents as potential inhibitors of dihydrofolate reductases” (J Med Chem, 1997).

Tests used:
[1] = target: T1, Dihydrofolate reductase (Pneumocystis carinii, UniProt P16184)
T1 sequence (P16184 whole entry): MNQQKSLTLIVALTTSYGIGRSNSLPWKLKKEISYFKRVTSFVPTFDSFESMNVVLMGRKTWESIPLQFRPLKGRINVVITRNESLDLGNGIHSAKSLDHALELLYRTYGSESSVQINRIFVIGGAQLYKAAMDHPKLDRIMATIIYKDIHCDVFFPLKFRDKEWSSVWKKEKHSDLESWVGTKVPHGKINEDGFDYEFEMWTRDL
Description: Inhibition of Dihydrofolate Reductase of Pneumocystis carinii.

[2] = target: T2, Bifunctional dihydrofolate reductase-thymidylate synthase (Toxoplasma gondii, UniProt Q07422)
T2 sequence (Q07422 whole entry): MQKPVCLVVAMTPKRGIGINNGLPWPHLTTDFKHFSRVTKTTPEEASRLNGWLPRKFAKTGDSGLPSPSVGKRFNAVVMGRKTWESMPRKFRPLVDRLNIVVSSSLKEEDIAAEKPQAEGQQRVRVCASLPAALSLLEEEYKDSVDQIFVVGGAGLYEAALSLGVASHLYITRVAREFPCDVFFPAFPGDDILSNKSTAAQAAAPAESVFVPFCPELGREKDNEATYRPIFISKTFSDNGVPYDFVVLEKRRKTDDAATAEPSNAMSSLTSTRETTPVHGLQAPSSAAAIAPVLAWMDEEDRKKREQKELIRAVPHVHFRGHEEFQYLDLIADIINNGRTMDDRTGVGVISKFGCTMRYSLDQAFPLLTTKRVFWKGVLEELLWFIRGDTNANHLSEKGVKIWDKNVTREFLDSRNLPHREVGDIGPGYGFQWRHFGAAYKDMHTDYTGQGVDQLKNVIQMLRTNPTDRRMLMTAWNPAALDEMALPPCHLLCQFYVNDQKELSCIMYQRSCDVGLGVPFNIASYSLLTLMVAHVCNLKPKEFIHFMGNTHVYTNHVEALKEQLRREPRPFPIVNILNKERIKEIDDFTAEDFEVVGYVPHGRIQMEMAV
Description: Inhibition of Dihydrofolate Reductase of Toxoplasma gondii.

[3] = target: T3, Dihydrofolate reductase (Rattus norvegicus, UniProt Q920D2)
T3 sequence (Q920D2 whole entry): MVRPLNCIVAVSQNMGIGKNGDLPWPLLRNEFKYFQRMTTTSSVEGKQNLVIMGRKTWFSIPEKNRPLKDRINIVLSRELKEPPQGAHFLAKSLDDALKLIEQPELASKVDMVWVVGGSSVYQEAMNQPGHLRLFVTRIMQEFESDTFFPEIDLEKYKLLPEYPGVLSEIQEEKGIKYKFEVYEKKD
Description: Inhibition of Dihydrofolate Reductase of Rat Liver.

[4] = Partition coefficient (logP); type: physicochemical; details: octanol/water
[5] = system: CHO; assay: Cell culture inhibition was assessed by measuring incorporation of [3H]uracil into Toxoplasma gondii cells (CHO cell line); type: functional, cell-based; details: Cricetulus griseus
[6] = Selectivity ratio of Toxoplasma gondii cell culture to the T. gondii (tg) Dihydrofolate Reductase; type: functional

Structure (SMILES) | IC50 [1] | IC50 [3] | IC50 [2] | logP [4] | IC50 [5] | Selectivity ratio [6]
Cc1c(C)c(-n2cccc2)c(C)c(C)c1NCc1cnc2nc(N)nc(N)c2c1C | 620 nM | 170 nM | 75 nM | – | – | –
COc1ccc2c(c1)CCN2Cc1cnc2nc(N)nc(N)c2c1C | 250 nM | 170 nM | 57 nM | – | – | –
COc1cc2c(cc1OC)CN(Cc1cnc3nc(N)nc(N)c3c1C)CC2 | 850 nM | 130 nM | 110 nM | – | – | –
COc1ccc(-c2ccccc2)cc1NCc1cnc2nc(N)nc(N)c2c1C | – | 440 nM | 68 nM | 4.77 | – | –
COc1ccc2c(ccn2Cc2cnc3nc(N)nc(N)c3c2C)c1 | 570 nM | 470 nM | 77 nM | 3.07 | 1000 nM | 13

More lines, main results first:

IC50 [1] | IC50 [3] | Structure (SMILES) | IC50 [2] | logP [4] | IC50 [5] | Selectivity ratio [6]
– | 3500 nM | COc1cc(NCc2cnc3nc(N)nc(N)c3c2C)c(-n2cccc2)cc1OC | 600 nM | – | – | –
290 nM | 150 nM | COc1cccc2c1CCN2Cc1cnc2nc(N)nc(N)c2c1C | 48 nM | – | – | –
410 nM | 230 nM | COc1cc2c(cc1OC)N(Cc1cnc3nc(N)nc(N)c3c1C)CC2 | 49 nM | 2.33 | 25100 nM | 512
350 nM | 230 nM | COc1cc(-n2cccc2)c(OC)cc1NCc1cnc2nc(N)nc(N)c2c1C | 33 nM | – | – | –
